The assay concerns lipopolysaccharide (LPS)-induced nitric oxide (NO) production in RAW 264.7 mouse macrophages. Put plainly: LPS-induced NO (nitrite) production in RAW 264.7 cells, Griess reagent. The assay is classed as cell-based. The note with it: for IC50: Mus musculus. The procedure:
A RAW 264.7 murine macrophage cell line was purchased from American Type Cell Culture (Rockville, MD, USA). Cells were cultured in DMEM with 10% fetal bovine serum and antibiotic−antimycotics (i.e., penicillin G sodium, 100 units/mL; streptomycin, 100 μg/mL; amphotericin B, 250 ng/mL) at 37 °C in a humidified incubator with 5% carbon dioxide. All reagents used for cell culture were purchased from Gibco® Invitrogen Corp. (Grand Island, NY, USA).
The concentration of nitrite in the cultured media was used as a measure of NO production. The assay was performed as previously described. RAW 264.7 cells were plated at a density of 5 × 10^5 per well in a 24-well culture plate and incubated in a 37 °C humidified incubator with 5% CO2 in air for 18 h. The incubated cells were pretreated with phenol-red-free medium containing various concentrations of tested compounds for 30 min, followed by 1 μg/mL of LPS treatment for 18 h more. Aliquots of the supernatant from each well (100 μL) were transferred to a 96-well plate, and nitrite concentration was measured using Griess reagent. After the Griess reaction, MTT solution (final concentration of 500 μg/mL) was added to each well and further incubated for 4 h at 37 °C. Each medium was discarded, and dimethyl sulfoxide was added to each well to dissolve generated formazan. The absorbance was measured at 570 nm, and percent survival was determined by comparison with LPS treated control group. All reagents used in the nitrite production measurement were purchased from Sigma-Aldrich (St. Louis, MO, USA).
Background: Nitrite, measured by Griess reagent, commonly stands in for NO production.

[1] abbreviates: RAW264.7, RAW 264.7 cells, compounds 30 min before LPS 1 μg/mL, 18 h, read-out: IC50, suppression of LPS-induced NO production.

SMILES strings stand for the structures. Where two headings read alike, the source gives them in different places.

One may read the IC50 as the concentration that gives 50% inhibition. Regarding `COc1c(-c2cc(O)c3c(c2OC)C(=O)c2cc(C)c(O)cc2C3=O)cc(O)c2c1C(=O)C1=C(C2=O)[C@H](O)[C@@H](O)[C@@](C)(O)[C@H]1O` (relative stereo) [Compound 2, alterporriol Z2], the IC50 under setting [1] stood at 16.1 ± 1.1 µM.

Consider `COc1c(-c2cc(O)c3c(c2OC)C(=O)c2cc(C)c(O)cc2C3=O)cc(O)c2c1C(=O)C1=C(C2=O)C(O)C(O)C(C)(O)C1O` (stereo not drawn) [Compound 1, alterporriol Z1], for which the IC50 under setting [1] came out at 11.6 ± 0.7 µM.

Turning to `COc1cc(O)c2c(c1)C(=O)c1cc(C)c(O)c(-c3c(OC)cc(O)c4c3C(=O)C3=C(C4=O)C(OC)C(O)C(C)(O)C3O)c1C2=O` (stereo not drawn) [Compound 3, alterporriol Z3], the “IC50, suppression of LPS-induced NO production” value (RAW 264.7 cells, compounds 30 min before LPS 1 μg/mL, 18 h) was “inactive”.

Consider `COc1cc(O)c2c(c1-c1c(OC)cc(O)c3c1C(=O)c1cc(C)c(O)cc1C3=O)C(=O)C1=C(C[C@@H](O)[C@@](C)(O)[C@@H]1O)C2=O` [Compound 4, alterporriol F], for which the IC50 under setting [1] was 9.6 ± 1.6 µM.

As to `COc1cc2c(c(O)c1-c1c(OC)cc(O)c3c1C(=O)C1=C(C3=O)[C@H](O)[C@@H](O)[C@@](C)(O)[C@@H]1O)C(=O)c1cc(O)c(C)cc1C2=O` [Compound 5, alterporriol G], under “RAW264.7, read-out: IC50, suppression of LPS-induced NO production”, the IC50 was determined as 8.4 ± 0.4 µM.

For the compound `COc1cc(O)c2c(c1)C(=O)c1cc(C)c(O)c(-c3c(OC)cc(O)c4c3C(=O)C3=C(C4=O)[C@H](O)[C@@H](O)[C@@](C)(O)[C@H]3O)c1C2=O` [Compound 6, alterporriol N], the IC50 under setting [1] is 10.7 ± 0.6 µM.
